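1) Cells in 96-well plates. 2) Compound, 48 h, 5 concentrations. 3) Linear interpolation between surrounding doses. 4) Unreached endpoint = highest concentration. The concentration for 50% growth inhibition is given as GI50.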 Activity calls are given as the source filed them. Rule as the data show it: active = GI50 up to about 1.1 µM and inactive = higher.
What was measured:
Test in all cases: NCI anticancer screen, dose series, 48 h
BT-549 = test system: BT-549
PC-3 = test system: PC-3
T47D = test system: T47D
MDA-MB-435 = test system: MDA-MB-435
DU-145 = test system: DU-145
LXFL 529 = test system: LXFL 529
SR = test system: SR

SMILES | GI50 (BT-549) | GI50 (PC-3) | GI50 (T47D) | GI50 (MDA-MB-435) | GI50 (DU-145) | GI50 (LXFL 529) | GI50 (SR)
CCOC(=O)c1ccc(N(CCOS(C)(=O)=O)CCOS(C)(=O)=O)cc1 | 40.6 µM (inactive) | 50.7 µM (inactive) | 43 µM (inactive) | 52.2 µM (inactive) | 21.8 µM (inactive) |  | 
COc1ccc(/C=c2\sc3n(c2=O)CCN=3)cc1 |  |  |  |  |  | > 100 µM (inactive) | > 100 µM (inactive)
C[C@H]1O[C@@H](O[C@H]2[C@@H](O)C[C@H](O[C@H]3[C@@H](O)C[C@H](O[C@H]4CC[C@@]5(C)[C@H](CC[C@@H]6[C@@H]5CC[C@]5(C)[C@@H](C7=CC(=O)OC7)CC[C@]65O)C4)O[C@@H]3C)O[C@@H]2C)C[C@H](O)[C@@H]1O [DIGITOXIN] | 0.0189 µM (active) | < 0.033 µM (active) |  | 0.0485 µM (active) |  |  | 0.0338 µM (active)
NCCCN(CCCN)CCN(CCN(CCCN)CCCN)CCN(CCCN)CCCN |  | > 100 µM (inactive) | 58.3 µM (inactive) | > 100 µM (inactive) | > 100 µM (inactive) |  | > 100 µM (inactive)
c1ccc(-n2cnnc2-c2nsc3ccccc23)cc1 |  |  |  |  |  | > 100 µM (inactive) | 
COc1ccccc1OCC(COC(=O)Nc1ccccc1)OC(=O)Nc1ccccc1 (stereo not drawn) |  |  |  |  |  | 27.5 µM (inactive) | 

— ChEMBL document CHEMBL1201862, “PubChem BioAssay data set” (2004)
